One series has as its target T1, TDP1 (Homo sapiens, UniProt Q9NUW8).
T1 construct: made in house; host or cells: E. coli
The experiment in a line: Steady-state kinetics of the TDP1 reaction (Vmax, KM, type of inhibition). Further details: Vmax: unit not given here. The format is biochemical. The source says:
The reversible enzyme inhibitors were classified as competitive, uncompetitive, non-competitive, or mixed, depending on the binding of the enzyme, to the enzyme–substrate complex (ES) or to the enzyme–substrate–inhibitor triple complex (ESI). The enzyme could bind the inhibitor at the different steps of catalysis (before or after the substrate) and at the substrate-binding site or another site. The effect of the inhibitor on enzymatic activity can be analyzed using graphical representations of the Michaelis–Menten equation. […] TDP1 has a catalytic pocket with a narrow positively charged cleft where it binds DNA and with a relatively large cleft that contains a mixed charge distribution for the TOP1 fragment binding. It is known that TDP1 hydrolyzes the DNA–TOP1 adducts via two coordinated nucleophilic attacks of two His residues (His263 and His493) with the covalent intermediate complex formation. The enzyme reaction catalyzed by TDP1 could be inhibited in two steps: the first one is the inhibition of the TDP1 binding to the DNA substrate (the nucleophilic attack of His263). The second step is releasing TDP1 from the transition complex (nucleophilic attack by a water molecule activated by His493). Inhibition of the second step prevents the release of the DNA 3′-phosphate product from the DNA–TDP1 complex. Spinocerebellar ataxia with axonal neuropathy (SCAN1) is a neurological disease that is caused by a TDP1 His493Arg mutation. This mutation prevents the second step of hydrolysis of the intermediate complex and the enzyme remains covalently bound to DNA [47]. The uncompetitive inhibitors also prevent the second step of the reaction, stabilizing the enzyme–DNA covalent complex, which can lead to the accumulation of the single-strand breaks in the cell.
The biosensor (5′-[FAM] AAC GTC AGGGTC TTC C [BHQ]-3′) was synthesized in the Laboratory of Nucleic Acid Chemistry at the Institute of Chemical Biology and Fundamental Medicine (Novosibirsk, Russia) and was used for TDP1 enzyme activity real-time fluorescence detection. The reaction mixture (200 μL) contained a TDP1 reaction buffer (50 mM Tris-HCl, pH 8.0, 50 mM NaCl, and 7 mM β-mercaptoethanol), 50 nM oligonucleotide, varied concentrations of the tested compounds, and purified TDP1 in a final concentration 1.5 nM. The reaction mixtures were incubated at a constant temperature of 26 °C in a POLARstar OPTIMA fluorimeter (BMG LABTECH, GmbH, Ortenberg, Germany). Fluorescence intensity was measured (Ex485/Em520 nm) every 1 min for 10 min. The average values of the half maximal inhibitory concentration (IC50) were determined using an eleven-point concentration response curve and calculated using MARS Data Analysis 2.0 (BMG LABTECH). The 50% inhibitory concentration (IC50) was defined as the concentration of the compound that inhibited 50% of the enzyme activity when compared to the untreated controls. At least three independent experiments were carried out to obtain the IC50 values. To determine the kinetic parameters of the TDP1 enzymatic reaction, the apparent maximum rate of enzymatic reaction (Vmax), Michaelis constant (KM), possible inhibition mechanism, and steady-state kinetic experiments were carried out at 5 fixed concentrations of the substrate, with variation in the inhibitor concentrations. The standard reaction mixtures (200 μL) contained reaction buffer components; 50 nM, 100 nM, 200 nM, 500 nM, or 1000 nM substrate; an inhibitor; and 1.5 nM recombinant human TDP1. The initial kinetic curves were obtained in three independent experiments and statistically processed in OriginPro 8.6.0 (OriginLab, Northampton, MA, USA).
Table S25 Dependence of TDP1 reaction values V max and K M on the concentration of inhibitors
[7g], mM V max Standard Error K M Standard Error
[7h], mM V max Standard Error K M Standard Error
[10a], mM V max Standard Error K M Standard Error
[10b], mM V max Standard Error K M Standard Error

Series [1] can be described thus: Colorimetric cytotoxicity test, HEK293A Tdp1-/-. In kind it is cell-based. Particulars: human, HEK293A Tdp1-/- cells; TDP1-/- cell line, intrinsic cytotoxicity (Figure 6). The source says: In our previous works, we checked the cytotoxic effect of Tpc and the TDP1 inhibitors—monoterpene 3-carene-derived compounds [48, 49] and UA combined with monoterpenoids, measured separately and jointly with Tpc—using a panel of HEK293FT and HEK293A Tdp1 knockout isogenic clones. […] The data on the HEK293FT mutants were of low reproducibility, which is why we decided to change the basic cell line to HEK293A [49]. In this work, we created new PARP1-/- HEK293A cells using the CRISPR–Cas9 approach (Figure S27). […] We checked the intrinsic cytotoxicity of the leader compound (10a) on the HEK293 wild type and TDP1-/- and PARP1-/- cell lines using a colorimetric test (Figure 6). […] There was no difference between the WT and mutant cells.
Cytotoxicity of the compounds was examined against human cell lines HEK293A (human embryonic kidney)—WT, TDP1 deficient (Tdp1-/-), PARP1 deficient (PARP1-/-), and HeLa (cervical cancer) using an EZ4U colorimetric test (Biomedica, Vienna, Austria). […] After the formation of a 30–50% monolayer, the tested compounds were added to the medium, and the cell culture was monitored for 3 days. […] The compound concentration that caused 50% cell growth inhibition was determined using OriginPro 8.6.0 software (OriginLab, Northampton, MA, USA). […]

Consider one compound from paper PMC8583042, “New Hybrid Compounds Combining Fragments of Usnic Acid and Thioether Are Inhibitors of Human Enzymes TDP1, TDP2 and PARP1” (International Journal of Molecular Sciences, 2021).

T1 sequence (Q9NUW8 whole entry): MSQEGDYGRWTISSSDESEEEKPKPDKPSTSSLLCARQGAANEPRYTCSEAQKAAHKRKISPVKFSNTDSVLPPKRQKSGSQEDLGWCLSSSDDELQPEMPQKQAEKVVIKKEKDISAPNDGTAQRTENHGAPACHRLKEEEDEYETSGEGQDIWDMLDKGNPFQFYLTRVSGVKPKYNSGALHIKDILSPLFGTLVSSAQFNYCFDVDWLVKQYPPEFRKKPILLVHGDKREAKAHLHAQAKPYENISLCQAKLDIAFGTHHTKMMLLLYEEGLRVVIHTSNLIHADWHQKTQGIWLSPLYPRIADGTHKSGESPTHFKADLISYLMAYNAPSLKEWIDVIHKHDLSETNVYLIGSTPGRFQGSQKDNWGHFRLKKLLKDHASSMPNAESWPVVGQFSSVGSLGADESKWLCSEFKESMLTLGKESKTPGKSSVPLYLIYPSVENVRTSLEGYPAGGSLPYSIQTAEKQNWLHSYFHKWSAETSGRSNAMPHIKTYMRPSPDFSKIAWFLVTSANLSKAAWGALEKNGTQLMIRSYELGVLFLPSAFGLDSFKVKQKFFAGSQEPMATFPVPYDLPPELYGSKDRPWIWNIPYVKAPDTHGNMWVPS

As for `CC(=O)C1=C(O)C=C2Oc3c(C(=O)C[S+]([O-])c4nc5ccccc5s4)c(O)c(C)c(O)c3[C@@]2(C)C1=O` (stereo partly drawn) [10a, (2R)-4-acetyl-10-[2-(1,3-benzothiazole-2-sulfinyl)acetyl]-5,11,13-trihydroxy-2,12-dimethyl-8-oxatricyclo[7.4.0.0^2,7]trideca-1(13),4,6,9,11-pentaen-3-one], the Vmax at TDP1 (inhibitor 0.8 mM (so in the source)) stood at 27.8; on TDP1 (inhibitor 1.6 mM (so in the source)), 26.5; on TDP1 (inhibitor 3.2 mM (so in the source)), 25.1; at TDP1 (inhibitor 6.4 mM (so in the source)), 21.3. Further, the “Type of inhibition of TDP1 enzyme reaction” value at TDP1 (steady-state conditions, fall in both Vmax and KM with increasing inhibitor) is “uncompetitive”. This compound also returned a CC50 at 3 days in series [1] of 15 to 20 µM.
